± gives the expanded uncertainty stated by the source.
Conditions: Liquid; for vapor or sublimation pressure: Ebulliometric method (Recirculating still); for mass density / viscosity: 101.3 kPa; for mass density: Vibrating tube method; for viscosity: Falling or rolling sphere viscometry

Clc1ccccc1Cl [1,2-dichlorobenzene]
vapor or sublimation pressure (360.41 K): 4.86 ± 0.2 kPa
vapor or sublimation pressure (377.35 K): 9.95 ± 0.4 kPa
vapor or sublimation pressure (388.41 K): 14.98 ± 0.61 kPa
vapor or sublimation pressure (396.96 K): 20.04 ± 0.42 kPa
vapor or sublimation pressure (403.4 K): 24.99 ± 0.53 kPa
vapor or sublimation pressure (408.91 K): 30 ± 0.63 kPa
vapor or sublimation pressure (414.16 K): 35.02 ± 0.73 kPa
vapor or sublimation pressure (418.75 K): 40.02 ± 0.83 kPa
vapor or sublimation pressure (422.87 K): 45.05 ± 0.94 kPa
vapor or sublimation pressure (429.99 K): 55.03 ± 1.1 kPa
vapor or sublimation pressure (433.29 K): 59.97 ± 1.2 kPa
vapor or sublimation pressure (438.87 K): 69.93 ± 1.4 kPa
vapor or sublimation pressure (443.92 K): 79.98 ± 1.6 kPa
vapor or sublimation pressure (448.94 K): 90.2 ± 1.9 kPa
vapor or sublimation pressure (451.11 K): 95.11 ± 2 kPa
vapor or sublimation pressure (452.62 K): 98.36 ± 2 kPa

CCCCC#N [pentanenitrile]
mass density (283.15 K): 807.7 ± 2.4 kg/m3
viscosity (293.15 K): 0.7191 ± 0.009 mPa·s
mass density (293.15 K): 799.1 ± 2.4 kg/m3
mass density (303.15 K): 790.4 ± 2.4 kg/m3
viscosity (313.15 K): 0.5654 ± 0.0071 mPa·s
mass density (313.15 K): 781.7 ± 2.4 kg/m3
mass density (323.15 K): 772.9 ± 2.3 kg/m3
vapor or sublimation pressure (329.35 K): 5 ± 0.2 kPa
viscosity (333.15 K): 0.4567 ± 0.0057 mPa·s
mass density (333.15 K): 764.2 ± 2.3 kg/m3
vapor or sublimation pressure (344.89 K): 9.9 ± 0.4 kPa
vapor or sublimation pressure (345.13 K): 10 ± 0.4 kPa
vapor or sublimation pressure (362.77 K): 20 ± 0.4 kPa
vapor or sublimation pressure (374.08 K): 30 ± 0.6 kPa
vapor or sublimation pressure (386.22 K): 45 ± 0.9 kPa
vapor or sublimation pressure (395.4 K): 60 ± 1.3 kPa
vapor or sublimation pressure (407.76 K): 86.4 ± 1.8 kPa
vapor or sublimation pressure (411.12 K): 95 ± 2 kPa
vapor or sublimation pressure (412.96 K): 100 ± 2.1 kPa
